Assay results as given in patent US12391681B2, “(R)-3-(3-chloro-5-fluoro-2-((4-(1h-pyrazol-1-yl)-2-methylquinolin-8-yloxy)methyl)phenyl)morpholine derivatives and related compounds as bradykinin (BK) B2 receptor antagonist for treating skin diseases” (Pharvaris GmbH, priority 2019, dated 2025).

Each molecule was assayed against T1, human bradykinin B2 receptor (hB2R) (Homo sapiens, UniProt P30411) (assay: cell-based human bradykinin B2 receptor calcium mobilization (hB2R-CaM) assay). Details: antagonistic activity; HTS041C cells; bradykinin at EC80; 25 min preincubation at 37° C.; read-out: IC50-value towards human bradykinin B2 receptor (hB2R).
T1 sequence (P30411 1-391): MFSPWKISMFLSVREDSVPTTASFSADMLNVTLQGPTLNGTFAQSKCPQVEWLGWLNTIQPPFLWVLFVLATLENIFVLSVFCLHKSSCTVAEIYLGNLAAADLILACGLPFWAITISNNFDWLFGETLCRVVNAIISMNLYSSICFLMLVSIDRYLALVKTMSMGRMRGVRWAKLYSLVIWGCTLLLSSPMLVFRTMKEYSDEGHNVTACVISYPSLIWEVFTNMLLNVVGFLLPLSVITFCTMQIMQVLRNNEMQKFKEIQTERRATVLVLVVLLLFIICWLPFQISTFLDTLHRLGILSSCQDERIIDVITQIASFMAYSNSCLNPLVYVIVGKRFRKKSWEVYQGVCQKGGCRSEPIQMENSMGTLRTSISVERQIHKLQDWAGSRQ
Text: The following cell-based human bradykinin B2 receptor calcium mobilization (hB2R-CaM) assay was used to determine the antagonistic activity of compounds selected from the example compounds Nos. 1 to 13 towards human bradykinin B2 receptor (hB2R). The assay is defined herein as a standard in vitro B2 receptor activity assay, which can be used to determine IC50 values of the compounds according to the present invention, e. g. the compounds shown in Examples 1-4.
The antagonistic activity of compounds according to the present invention was investigated with the hB2R-CaM assay using the B2 Bradykinin Receptor Stable Cell Line HTS041C (Eurofins, St. Charles MO) and the FLIPR Calcium 6 Assay Kit (Molecular Devices, Wokingham, UK) according to the instructions of the providers. CaM assay measurements were performed with a Flexstation 3 System (Molecular Devices) which allows the precise addition of compounds (B2R antagonists) and bradykinin (B2R agonist) to the cells and adjacent continuous recording of the time-dependent CaM assay signals.
HTS041C cells were cultured in high glucose DMEM cell culture medium (Lonza) supplemented with 10% heat-inactivated FBS (PAN Biotech), 10 mM HEPES, Penicillin/Streptomycin (200 U/mL, 200 μg/mL), 1× non-essential amino acids (Lonza), and 250 μg/mL G418 (Invivogen) in cell incubator at 37° C. in a 5% CO2 atmosphere. One day before the CaM assay experiments cells were seeded in 200 μL DMEM cell culture medium with reduced FBS (5%) and without G418 on clear bottom black 96 well plates (ThermoFisher #165305). Cell starvation was carried out by incubation (37° C., 5% CO2) of 70.000 cells/well for 24 h to 28 h. Immediately prior calcium dye-loading the medium was carefully aspirated and cells were washed with Hank's balanced salt solution (HBSS, Gibco) containing Ca^2+, Mg^2+ and 20 mM HEPES, adjusted to pH 7.4 (HBSS+).
For calcium dye-loading one FLIPR 6 assay aliquot was dissolved in 20 mL HBSS+. 150 μL of the dye loading solution was added to cell plate and incubated for 120 min at 37° C. and 5% CO2. After dye loading the cell plate was immediately transferred to the pre-warmed (37° C.) Flexstation 3 System for CaM assaying.
Freshly prepared compound (B2 receptor antagonists) dilution series (8 pt, n=2) and bradykinin (B2 receptor agonist) solution in non-binding plates (Costar) were transferred to the Flexstation System (source plate) shortly before starting the experiment. Bradykinin was added in EC80 concentration determined in n>3 preliminary experiments with 8 pt concentration response curves (n=8)). CaM assay was executed by Flexstation 3 System starting with recording of calcium-sensitive dye fluorescence in bottom-read Flex modus with ex/em=485 nm/525 nm, cut off(em)=515 nm After 20 s, 50 μL of 4-fold concentrated compound dilutions were added to the cells resulting in a final DMSO (Sigma) concentration of 0.1% in the cell plate. CaM signals were monitored for 80 s after additions for detection of potential agonistic activities. Prior to bradykinin stimulus compound- and vehicle-treated cells were incubated for 25 min at 37° C. within the Flexstation System. Then 50 μL of a 5-fold concentrated bradykinin solution (HBSS+, 0.1% DMSO) was added to trigger CaM signals (Read out: Max-Min values) which were measured for 80 s post bradykinin stimulus.
IC50 determinations were performed by 4 parameter logistic model curve fitting of the 8 pt (n=2) compound concentration response curves using XLFIT (IDBS) software.
`Cc1cc(-n2cc(F)cn2)c2cccc(OCc3c(Cl)cc(F)cc3[C@@H]3COCCN3C(=O)COC(F)F)c2n1` [Compound No. 1, (R)-1-(3-(3-chloro-5-fluoro-2-((4-(4-fluoro-1H-pyrazol-1-yl)-2-methylquinolin-8-yloxy)methyl)phenyl)morpholino)-2-(difluoromethoxy)ethanone] was tested, and the IC50 was ≤ 25 nM. For `[2H][C@@]1(c2cc(F)cc(Cl)c2COc2cccc3c(-n4cc(F)cn4)cc(C)nc23)COCCN1C(=O)COC(F)F` [Compound No. 1A, 1-[(3R)-3-[3-chloro-5-fluoro-2-({[4-(4-fluoropyrazol-1-yl)-2-methylquinolin-8-yl]oxy}methyl)phenyl](3-deutero)morpholin-4-yl]-2-(difluoromethoxy)ethanone], the IC50 was ≤ 25 nM. In the case of `Cc1cc(-c2ncnn2C)c2cccc(OCc3c(Cl)cc(F)cc3[C@@H]3COCCN3C(=O)COC(F)F)c2n1` [Compound No. 2, (R)-1-(3-(3-chloro-5-fluoro-2-((2-methyl-4-(1-methyl-1H-1,2,4-triazol-5-yl)quinolin-8-yloxy)methyl)phenyl)morpholino)-2-(difluoromethoxy)ethanone], the IC50 is reported as ≤ 25 nM. Molecule `CC1=N[C@H](c2cc(F)cc(Cl)c2COc2cccc3c(-n4cc(F)cn4)cc(C)nc23)CO1` [Compound No. 3, (R)-4-(3-chloro-5-fluoro-2-((4-(4-fluoro-1H-pyrazol-1-yl)-2-methylquinolin-8-yloxy)methyl)phenyl)-2-methyl-4,5-dihydrooxazole] has an IC50 of 501 to 5000 nM. `Cc1cc(-n2cc(F)cn2)c2cccc(OCc3c(Cl)cc(F)cc3[C@@H]3COCC(=O)N3)c2n1` [compound 4] gave an IC50 of 501 to 5000 nM. With `Cc1cc(-n2cc(F)cn2)c2cccc(OCc3c(Cl)cc(F)cc3[C@@H]3COCCN3)c2n1` [compound 5] the IC50 was 501 to 5000 nM. In the case of `Cc1cc(-n2cc(F)cn2)c2cccc(OCc3c(Cl)cc(F)cc3[C@@H]3COCCN3C(=O)[C@@H](C)O)c2n1` [compound 6], the IC50 is reported as 26 to 500 nM. `Cc1cc(-n2cc(F)cn2)c2cccc(OCc3c(Cl)cc(F)cc3[C@@H]3COCCN3C(=O)C(C)(C)O)c2n1` [compound 7] gave an IC50 of 26 to 500 nM. `Cc1cc(-n2cc(F)cn2)c2cccc(OCc3c(Cl)cc(F)cc3[C@@H]3COCCN3C(=O)c3cnco3)c2n1` [compound 8] gave an IC50 of 26 to 500 nM. `Cc1cc(-c2ncnn2C)c2cccc(OCc3c(Cl)cc(F)cc3[C@@H]3COCCN3C(=O)C(C)(C)O)c2n1` [compound 9] showed an IC50 of 26 to 500 nM. With `Cc1cc(-c2ncnn2C)c2cccc(OCc3c(Cl)cc(F)cc3[C@@H]3COCCN3C(=O)[C@H](C)O)c2n1` [compound 10] the IC50 was ≤ 25 nM. With `Cc1cc(-c2ncnn2C)c2cccc(OCc3c(Cl)cc(F)cc3[C@@H]3COCCN3C(=O)c3cnco3)c2n1` [compound 11] the IC50 was ≤ 25 nM. With `Cc1cc(-c2ncnn2C)c2cccc(OCc3c(Cl)cc(F)cc3[C@@H]3COCC(=O)N3)c2n1` [compound 12] the IC50 was 26 to 500 nM. In the case of `Cc1cc(-c2ncnn2C)c2cccc(OCc3c(Cl)cc(F)cc3[C@@H]3COCCN3)c2n1` [compound 13], the IC50 is reported as 26 to 500 nM.
